Test results published in patent US9517988B2 (Sichuan Haisco Pharmaceutical Co., Ltd., priority 2013, dated 2016).

Tests used:
[1] = Pharmacokinetic experiment on rats; format: in vivo, SD rats; settings: male, Sprague-Dawley, rat, plasma; Intravenous Injection into Rats (1 mg/kg)
Description: 3 male SD rats, each weighing 180 to 240 g, were fasted overnight with water access. A 1 mL/kg solution of the compound was formulated with 10% DMA, 20% solutol HS-15 (30%, w/v) and 70% physiological saline. Blood was sampled before administration and 2 min, 4 min, 8 min, 12 min, 15 min, 30 min, 1 h, 1.5 h and 2 h after administration. Blood samples were centrifuged at 5500 rpm for 10 min, and plasma was collected and stored at −40° C. 10 μl rat plasma from each time point was added to a 200 μl acetonitrile solution containing an internal standard and mixed, followed by 1-min vortexing and 18-min centrifugation at 3700 rpm. Then 70 μl supernatant was mixed with 70 μl water, and 10 μl of the mixture was analyzed by LC-MS/MS. Major pharmacokinetic parameters were subjected to a non-compartment analysis with the software WinNonlin 6.3.

ICR mice [2] = experiment: Righting reflex experiment on mice; settings: for ED50: Mus musculus, iv; for Anesthesia induction time / Anesthesia maintenance time / HD7 / MTD: mice; for Anesthesia induction time / Anesthesia maintenance time: intravenous injection; for Anesthesia induction time: end of administration until loss of righting reflex; for Anesthesia maintenance time: loss until recovery of righting reflex; for HD7: dose required to cause a 7-min anesthesia; for SI: safety index, LD5/ED95, mice; for TI: therapeutic index, LD50/ED50, mice; for MTD: maximum dose causing 100% loss of righting reflex without death
Description: (§1) LD5 (5% lethal dose): dose required to cause 5% of mice to die in a test.
(§2) If a normal animal was able to immediately turn its body to normal upright position after being pushed over or made lying on its back, such a reflex was determined as the righting reflex. Otherwise, loss of the righting reflex and the time of loss were recorded, and a reflex recovery time was recorded when the animal restored the righting reflex. The period from finishing of drug administration until loss of the righting reflex was recorded as the anesthesia induction time, and the period from loss of the righting reflex until recovery of the righting reflex was recorded as the anesthesia maintenance time.
(§3) TI (therapeutic index, i.e. LD50/ED50), SI (safety index, i.e. LD5/ED95).
(§4) MTD (maximum tolerated dose): the maximum dose able to cause 100% to loss the righting index without death.
(§5) Indicators such as median effective dose (ED50), median lethal dose (LD50), therapeutic index (TI, i.e. LD50/ED50), safety index (SI, i.e. LD5/ED95), anesthesia induction time, anesthesia maintenance time, and maximum tolerated dose (MTD) were used to evaluate the effect and safety of anesthesia. […] After adapting to the laboratory environment, laboratory animals were fasted for 12 hours. On the next day, administration was carried out at 10 mg/kg body weight. Upon intravenous injection, the time of loss of the righting reflex was recorded. The period from finishing of drug administration until loss of the righting reflex was recorded as the anesthesia induction time, and the period from loss of the righting reflex until recovery of the righting reflex was recorded as the anesthesia maintenance time. The anesthesia induction time and the anesthesia maintenance time were used to indicate how strong an anesthetic effect was. Meanwhile, the dose required to cause a 7-min anesthesia (HD7) was measured and used to evaluate relative efficacy.

[3] = Righting reflex experiment on mice; settings: both, ICR, mouse, in vivo; for MTD: intravenous; for LD50: iv
Description: as §1, §2, §3, §4, §5

ICR mice [4] = experiment: Righting reflex experiment on mice with prodrugs; format: in vivo; settings: for ED50: Mus musculus, prodrugs formulated with physiological saline, read-out: ED50; for ED50 / Anesthesia induction time / Anesthesia maintenance time: intravenous injection; for SI: safety index, LD5/ED95, mice; for TI: therapeutic index, LD50/ED50, mice
Description: (§6) After adapting to the laboratory environment, the SPF-grade ICR mice were fasted for 12 hours.

[5] = Righting reflex experiment on mice with prodrugs; format: in vivo; settings: both sexes, ICR, mouse, in vivo, mice; for MTD: intravenous, prodrugs; for LD50: intravenous injection, prodrugs in physiological saline
Description: as §6

SD rats = experiment: Efficacy experiment on rats with prodrugs; format: in vivo
Description: (§7) This experiment selected SD rats, each weighing 180 to 200 g. The rats were randomized, with 10 animals per group, half male and half female. […] The time of administration, time of loss of the righting reflex, time of recovery of the righting reflex, and time of walking were recorded. Adverse effects shown by the rats after administration were also recorded.
(§8) Time of loss of the righting reflex: the righting reflex is lost; a rat made lying on its back can maintain the lying for a period of 60 s;
(§9) Time of recovery of the righting reflex: the righting reflex ability is restored; a rat made lying on its back rights in less than 2 s;
(§10) Time of walking: spontaneous forwarding moving occurs, and muscle tension of the limbs recovers.
(§11) Using GraphPad Prism 5, ED50 and LD50 values were calculated from a non-linear fitting of number of anesthetic or dead animals resulting from various doses.

[6] = Efficacy experiment on rats with prodrugs; format: in vivo; settings: both sexes, Sprague-Dawley, rat, in vivo, intravenous, SD rats
Description: as §7, §8, §9, §10, §11

[7] = Pharmacokinetic analysis with prodrugs in rats; format: in vivo, SD rats; settings: male, Sprague-Dawley, rat, plasma; Intravenous Injection into Rats (10 mg/kg); analyte: prodrug
Description: 3 male SD rats, each weighing 180 to 240 g, were fasted overnight with water access. After a single intravenous administration of a prodrug at 10 mg/kg to rats, the plasma concentrations of the prodrug and the active form were each measured by LC-MS/MS, and the pharmacokinetic parameters were analyzed.

CC[C@H](C)c1cccc([C@@H](C)C2CC2)c1O [Compound 28, 2-[(1S)-1-cyclopropylethyl]-6-[(1S)-1-methylpropyl]phenol]
AUC(0-t) [1]: 143 ng·h/mL
clearance [1]: 115 mL/min/kg
half-life [1]: 18 min
ED50 (ICR mice [2]): 5.3 mg/kg
Anesthesia induction time (ICR mice [2]): <15.0 s
Anesthesia maintenance time (ICR mice [2]): 885.9 s
HD7 (ICR mice [2]): 8.0 mg/kg
SI (ICR mice [2]): 3.0
TI (ICR mice [2]): 6.9
MTD [3]: 15 mg/kg
LD50 [3]: 36.8 mg/kg

CC[C@@H](C)c1cccc([C@@H](C)C2CC2)c1O [Compound 29, 2-[(1S)-1-cyclopropylethyl]-6-[(1R)-1-methylpropyl]phenol]
AUC(0-t) [1]: 114 ng·h/mL
clearance [1]: 145 mL/min/kg
half-life [1]: 24 min
ED50 (ICR mice [2]): 10.1 mg/kg
Anesthesia induction time (ICR mice [2]): <15.0 s
Anesthesia maintenance time (ICR mice [2]): 1149.5 s
SI (ICR mice [2]): 3.7
TI (ICR mice [2]): 6.4
MTD [3]: 40 mg/kg
LD50 [3]: 65.4 mg/kg

CC(C)c1cccc([C@H](C)C2CC2)c1OCOC(=O)[C@H](Cc1ccccc1)NC(=O)OC(C)(C)C [Compound 61, [2-[(1R)-1-cyclopropylethyl]-6-isopropyl-phenoxy]methyl(2S)-2-(tertbutoxycarbonylamino)-3-phenyl-propanoate]
ED50 (ICR mice [4]; mice): 6.1 mg/kg
Anesthesia induction time (ICR mice [4]; mice, prodrugs): 17.5 s
Anesthesia maintenance time (ICR mice [4]; mice, prodrugs): 1109.2 s
ED50 and efficacy compared with propofol (ICR mice [4]; mice, prodrugs): smaller ED50 value and higher efficacy than propofol
SI (ICR mice [4]; prodrugs): 3.7
TI (ICR mice [4]; prodrugs): 14.4
MTD [5]: 40 mg/kg
LD50 [5]: 87.4 mg/kg
ED50 (SD rats; Rattus norvegicus, SD rats, tail vein, non-linear fitting): 6.5 mg/kg
Anesthesia induction time (SD rats; SD rats, tail vein): 0.0 s
Anesthesia maintenance time (SD rats; SD rats, tail vein): 1474.9 s
ED50 and efficacy compared with propofol (SD rats; rats, prodrugs): smaller ED50 and higher efficacy than propofol
SI (SD rats; safety index, LD5/ED95, rats): 6.3
TI (SD rats; therapeutic index, LD50/ED50, rats): 9.4
MTD [6]: 40 mg/kg
LD50 ([6]; tail vein, non-linear fitting): 60.8 mg/kg

CC(C)c1cccc(C(C2CC2)C2CC2)c1O [Compound 11, 2-(dicyclopropylmethyl)-6-isopropyl-phenol]
ED50 (ICR mice [2]): 30.1 mg/kg
Anesthesia induction time (ICR mice [2]): <15.0 s
Anesthesia maintenance time (ICR mice [2]): 1494.7 s
SI (ICR mice [2]): 2.5
TI (ICR mice [2]): 3.3
MTD [3]: 80 mg/kg
LD50 [3]: 100 mg/kg

CC(c1cccc(C(C)C2CC2)c1O)C1CC1 (stereo not drawn) [Compound 13, 2,6-bis(1-cyclopropylethyl)phenol]
AUC(0-t) [1]: 187 ng·h/mL
clearance [1]: 87.5 mL/min/kg
half-life [1]: 12 min
ED50 (ICR mice [2]): 3.6 mg/kg
Anesthesia induction time (ICR mice [2]): <15.0 s
Anesthesia maintenance time (ICR mice [2]): 554.4 s
HD7 (ICR mice [2]): 7.0 mg/kg
MTD (ICR mice [2]): 10.0 mg/kg
SI (ICR mice [2]): 3.0
TI (ICR mice [2]): 5.5
LD50 [3]: 20 mg/kg

CC[C@@H](C)c1cccc([C@H](C)C2CC2)c1O [Compound 26, 2-[(1R)-1-cyclopropylethyl]-6-[(1R)-1-methylpropyl]phenol]
AUC(0-t) [1]: 124 ng·h/mL
clearance [1]: 134 mL/min/kg
half-life [1]: 30 min
ED50 (ICR mice [2]): 1.3 mg/kg
Anesthesia induction time (ICR mice [2]): <15.0 s
Anesthesia maintenance time (ICR mice [2]): 690.0 s
HD7 (ICR mice [2]): 2.5 mg/kg
SI (ICR mice [2]): 2.4
TI (ICR mice [2]): 6.4
MTD [3]: 4 mg/kg
LD50 [3]: 8.3 mg/kg

CC(c1cccc(C2(C)CC2)c1O)C1CC1 (stereo not drawn) [Compound 6, 2-(1-cyclopropylethyl)-6-(1-methylcyclopropyl)phenol]
ED50 (ICR mice [2]): 10.5 mg/kg
Anesthesia induction time (ICR mice [2]): <15.0 s
Anesthesia maintenance time (ICR mice [2]): 554.9 s
SI (ICR mice [2]): 2.7
TI (ICR mice [2]): 3.8
MTD [3]: 30 mg/kg
LD50 [3]: 40 mg/kg

CC[C@H](C)c1cccc([C@H](C)C2CC2)c1O [Compound 25, 2-[(1R)-1-cyclopropylethyl]-6-[(1S)-1-methylpropyl]phenol]
AUC(0-t) [1]: 78.1 ng·h/mL
clearance [1]: 208 mL/min/kg
half-life [1]: 24 min
ED50 (ICR mice [2]): 2 mg/kg
Anesthesia induction time (ICR mice [2]): <15.0 s
Anesthesia maintenance time (ICR mice [2]): 1048.0 s
HD7 (ICR mice [2]): 4.0 mg/kg
SI (ICR mice [2]): 4.6
TI (ICR mice [2]): 7.1
MTD [3]: 10 mg/kg
LD50 [3]: 14.3 mg/kg

CCC(C)c1cccc(C(C)C2CC2)c1O (stereo not drawn) [Compound 4, 2-sec-butyl-6-(1-cyclopropylethyl)phenol]
ED50 (ICR mice [2]): 4.5 mg/kg
Anesthesia induction time (ICR mice [2]): <15.0 s
Anesthesia maintenance time (ICR mice [2]): 901.7 s
HD7 (ICR mice [2]): 4.0 mg/kg
SI (ICR mice [2]): 2.6
TI (ICR mice [2]): 8.4
MTD [3]: 25 mg/kg
LD50 [3]: 38.1 mg/kg

CC(C)c1cccc([C@H](C)C2CC2)c1OP(=O)(O)O [Compound 46, [[2-[(1R)-1-cyclopropylethyl]-6-isopropyl-phenoxy]-sodiooxy-phosphoryl]oxysodium]
ED50 (ICR mice [4]; mice): 72.6 mg/kg
Anesthesia induction time (ICR mice [4]; mice, prodrugs): 167.0 s
Anesthesia maintenance time (ICR mice [4]; mice, prodrugs): 2204.6 s
SI (ICR mice [4]; prodrugs): 2.4
TI (ICR mice [4]; prodrugs): 3.1
MTD [5]: 200 mg/kg
LD50 [5]: 225 mg/kg
AUC(0-t) [7]: 22400 ng·h/mL
clearance [7]: 6.1 mL/min/kg
half-life [7]: 54 min

CC(C)c1cccc([C@@H](C)C2CCC2)c1O [Compound 15, 2-[(1S)-1-cyclobutylethyl]-6-isopropyl-phenol]
ED50 (ICR mice [2]): 46.1 mg/kg
Anesthesia induction time (ICR mice [2]): <15.0 s
Anesthesia maintenance time (ICR mice [2]): 485.8 s
MTD (ICR mice [2]): 70.0 mg/kg
SI (ICR mice [2]): 1.1
TI (ICR mice [2]): 2.3
LD50 [3]: 107 mg/kg

C[C@@H](c1cccc([C@H](C)C2CC2)c1O)C1CC1 [Compound 18, 2,6-bis[(1R)-1-cyclopropylethyl]phenol]
ED50 (ICR mice [2]): 5.8 mg/kg
Anesthesia induction time (ICR mice [2]): <15.0 s
Anesthesia maintenance time (ICR mice [2]): 1031.6 s
HD7 (ICR mice [2]): 2.5 mg/kg
SI (ICR mice [2]): 3.5
TI (ICR mice [2]): 7.5
MTD [3]: 20 mg/kg
LD50 [3]: 43.6 mg/kg

CC(C)c1cccc(C(C)C2CC2)c1O (stereo not drawn) [Compound 3, 2-(1-cyclopropylethyl)-6-isopropylphenol]
ED50 (ICR mice [2]): 3.7 mg/kg
Anesthesia induction time (ICR mice [2]): <15.0 s
Anesthesia maintenance time (ICR mice [2]): 660.4 s
HD7 (ICR mice [2]): 6.0 mg/kg
SI (ICR mice [2]): 1.7
TI (ICR mice [2]): 6.1
MTD [3]: 10 mg/kg
LD50 [3]: 22.7 mg/kg

COc1cccc(C(C)C2CC2)c1O (stereo not drawn) [Compound 8, 2-(1-cyclopropylethyl)-6-methoxy-phenol]
AUC(0-t) [1]: 132 ng·h/mL
clearance [1]: 119 mL/min/kg
half-life [1]: 48 min
ED50 (ICR mice [2]): 7.3 mg/kg
Anesthesia induction time (ICR mice [2]): <15.0 s
Anesthesia maintenance time (ICR mice [2]): 394.8 s
SI (ICR mice [2]): 7.0
TI (ICR mice [2]): 9.1
MTD [3]: 40 mg/kg
LD50 [3]: 67 mg/kg
